In US8518872B2, “Methods of using (+)-1,4-dihydro-7-[(3S,4S)-3-methoxy-4-(methylamino)-1-pyrrolidinyl]-4-OXO-1-(2-thiazolyl)-1,8-naphthyridine-3-carboxylic acid in combination therapy” (Sunesis Pharmaceuticals, Inc., priority 2007, dated 2013):
“And” between values parts separate entries of the source, which are not always exact repeats. Equal values may be shown once.

Columns and labels:
[1] = system: subcutaneous A2780 xenografts (ovarian carcinoma); assay: SNS-595 and cisplatin in ovarian carcinoma A2780 xenograft model; conditions: SNS-595 10 mg/kg IV qw x3, cisplatin 5 mg/kg IP qw x3, combination of both
Experimental: The effect of co-administration of SNS-595 and cisplatin was observed on the growth of ovarian carcinoma studied in athymic nude mice bearing subcutaneous A2780 xenografts. The mice were treated with SNS-595, cisplatin or the two in combination as indicated below.
Animal treatment was initiated when mean tumor volume was 200 mm^3. The combination was co-dosed once a week for three weeks. Tumor volumes and animal body weight were measured twice weekly.

[2] = system: subcutaneous H460 (non-small cell lung carcinoma); assay: SNS-595 and carboplatin in non-small cell lung carcinoma H460 xenograft model; format: in vivo, athymic nude mice; conditions: SNS-595 10 mg/kg IV qw x5, carboplatin 75 mg/kg IP qw x3, combination of both
Experimental: The effect of co-administration of SNS-595 and carboplatin was observed on the growth of non-small cell lung carcinoma, athymic nude mice bearing subcutaneous H460. The mice were treated with SNS-595, carboplatin or the two in combination as indicated below.

[3] = Solubility of SNS-595 in acidic compositions; format: physicochemical; conditions: acidic compositions (<pH 4)
Experimental: An illustrative example of a suitable composition comprises: 10 mg SNS-595 per mL of aqueous solution of 4.5% sorbitol that is adjusted to pH 2.5 with methanesulfonic acid. One protocol for making such a solution includes the following for making a 100 mg/10 mL presentation: 100 mg of SNS-595 and 450 mg D-sorbitol are added to distilled water; the volume is brought up to a volume of 10 mL; and the pH of the resulting solution is adjusted to 2.5 with methanesulfonic acid. The resulting composition is also suitable for lyophilization. The lyophilized form is then reconstituted with sterile water to the appropriate concentration prior to use.

[4] = system: subcutaneous BxPC-3 xenografts (pancreatic carcinoma); assay: SNS-595 and gemcitabine in pancreatic carcinoma BxPC-3 xenograft model; format: in vivo, NIH-III mice; conditions: SNS-595 15 mg/kg IV qw x3, gemcitabine 65 mg/kg IP biw x3; for BW Nadir: BxPC-3 xenograft mice; for BW Nadir / % Tumor Growth Inhibition (Day 38) / BW Nadir (Day of): combination of both; for BW Nadir (Day of): day of body weight nadir
Experimental: SNS-595 was administered once a week and gemcitabine was twice weekly for two weeks followed by one additional dose as indicated above with the combination being co-dosed. Tumor volume and animal body weight was measured at least once weekly. SNS-595 was administered once a week and gemcitabine was twice weekly for two weeks followed by one additional dose as indicated above with the combination being co-dosed. Tumor volume and animal body weight was measured at least once weekly.

[5] = system: subcutaneous H460 xenografts (non-small cell lung carcinoma); assay: SNS-595 and gemcitabine in non-small cell lung carcinoma H460 xenograft model; format: in vivo, athymic nude mice; conditions: SNS-595 10 mg/kg IV qw x3, gemcitabine 75 mg/kg IP biw x2, combination of both; for BW Nadir: H460 xenograft mice; for BW Nadir (Day of): day of body weight nadir
Experimental: The effect of co-administration of SNS-595 and gemcitabine on the growth of non-small cell lung carcinoma, athymic nude mice bearing subcutaneous H460 xenografts were treated with SNS-595, gemcitabine or the two in combination as indicated below.
SNS-595 was administered once a week and gemcitabine was twice weekly as indicated above with the combination being co-dosed. In the vehicle group, the gemcitabine vehicle was administered 24 hours after the SNS-595 vehicle representing additional treatment arms in the experiment. Tumor volume and animal body weight was measured at least twice weekly.

SMILES	% Tumor Growth Inhibition (Day 11) [1] [%]	Tumor Growth Delay [1] [days]	% Tumor Growth Inhibition (Day 16) [2]	Tumor Growth Delay [2] [days]	BW Nadir [4] [%]	% Tumor Growth Inhibition (Day 38) [4]	Tumor Growth Delay [4] [days]	BW Nadir (Day of) [4]	% Tumor Growth Inhibition (Day 11) [5]	BW Nadir [5] [%]	Tumor Growth Delay [5] [days]	BW Nadir (Day of) [5]	other results
CN[C@H]1CN(c2ccc3c(=O)c(C(=O)O)cn(-c4nccs4)c3n2)C[C@@H]1OC [SNS-595, (+)-1,4-dihydro-7-[(3S,4S)-3-methoxy-4-(methylamino)-1-pyrrolidinyl]-4-oxo-1-(2-thiazolyl)-1,8-naphthyridine-3-carboxylic acid]	21.7	5.5	53% and 53.2%	23.0	−2.5	26% and 25.9%	23.0	(Day 11)	62% and 61.9%	−5.9	11.0	(Day 11)	solubility [3]: increased solubility
Nc1ccn([C@@H]2O[C@H](CO)[C@@H](O)C2(F)F)c(=O)n1 [Gemcitabine, gemcitabine]	–	–	–	–	0	20.2%	12.5	(Day 0)	36.6%	−7.4	5.0	(Day 11)	% Tumor Growth Inhibition (Day 38) ([4]; listed as gemcitabine): 20%; % Tumor Growth Inhibition (Day 11) ([5]; listed as gemcitabine): 37%
N.N.O=C([O-])C1(C(=O)[O-])CCC1.[Pt+2] [Carboplatin, carboplatin]	–	–	31.6%	12.5	–	–	–	–	–	–	–	–	% Tumor Growth Inhibition (Day 16) ([2]; listed as carboplatin): 32%; BW Nadir ([2]; H460 xenograft mice): −2.8%; BW Nadir (Day of) ([2]; day of body weight nadir): (Day 16)
N.N.[Cl][Pt][Cl] [Cisplatin, cisplatin]	49.0	11.0	–	–	–	–	–	–	–	–	–	–	BW Nadir ([1]; A2780 xenograft mice): −10.9%; % Tumor Growth Inhibition (Day 11) ([1]; listed as cisplatin): 49%; BW Nadir (Day of) ([1]; day of body weight nadir): (Day 11)
